Test results: ChEMBL document CHEMBL4033700, “From a novel HTS hit to potent, selective, and orally bioavailable KDM5 inhibitors” (Bioorg Med Chem Lett, 2017)

Assays:
[1] = Protein binding in rat plasma; assay type: ADME, cell-free; details: read-out: PPB (converted)
[2] = Half-life in CD-1 mouse plasma at 1 mg/kg, iv or 5 mg/kg, po; assay type: ADME, organism-based
[3] = Protein binding in human plasma; assay type: ADME, cell-free; details: read-out: PPB (converted)
[4] = Volume of distribution in CD-1 mouse plasma at 1 mg/kg, iv or 5 mg/kg, po; assay type: ADME, organism-based
[5] = Protein binding in mouse plasma; assay type: ADME, cell-free; details: read-out: PPB (converted)
[6] = Hepatic clearance in human liver microsomes; assay type: ADME, microsome
[7] = target: T1, Lysine-specific demethylase 4C (Homo sapiens, UniProt Q9H3R0); experiment: Inhibition of recombinant human N-terminal FLAG-tagged KDM4C expressed in baculovirus infected Sf9 insect cells using H3K9me3 peptide as substrate after 30 to 45 mins by TR-FRET assay
T1 sequence (Q9H3R0 whole entry): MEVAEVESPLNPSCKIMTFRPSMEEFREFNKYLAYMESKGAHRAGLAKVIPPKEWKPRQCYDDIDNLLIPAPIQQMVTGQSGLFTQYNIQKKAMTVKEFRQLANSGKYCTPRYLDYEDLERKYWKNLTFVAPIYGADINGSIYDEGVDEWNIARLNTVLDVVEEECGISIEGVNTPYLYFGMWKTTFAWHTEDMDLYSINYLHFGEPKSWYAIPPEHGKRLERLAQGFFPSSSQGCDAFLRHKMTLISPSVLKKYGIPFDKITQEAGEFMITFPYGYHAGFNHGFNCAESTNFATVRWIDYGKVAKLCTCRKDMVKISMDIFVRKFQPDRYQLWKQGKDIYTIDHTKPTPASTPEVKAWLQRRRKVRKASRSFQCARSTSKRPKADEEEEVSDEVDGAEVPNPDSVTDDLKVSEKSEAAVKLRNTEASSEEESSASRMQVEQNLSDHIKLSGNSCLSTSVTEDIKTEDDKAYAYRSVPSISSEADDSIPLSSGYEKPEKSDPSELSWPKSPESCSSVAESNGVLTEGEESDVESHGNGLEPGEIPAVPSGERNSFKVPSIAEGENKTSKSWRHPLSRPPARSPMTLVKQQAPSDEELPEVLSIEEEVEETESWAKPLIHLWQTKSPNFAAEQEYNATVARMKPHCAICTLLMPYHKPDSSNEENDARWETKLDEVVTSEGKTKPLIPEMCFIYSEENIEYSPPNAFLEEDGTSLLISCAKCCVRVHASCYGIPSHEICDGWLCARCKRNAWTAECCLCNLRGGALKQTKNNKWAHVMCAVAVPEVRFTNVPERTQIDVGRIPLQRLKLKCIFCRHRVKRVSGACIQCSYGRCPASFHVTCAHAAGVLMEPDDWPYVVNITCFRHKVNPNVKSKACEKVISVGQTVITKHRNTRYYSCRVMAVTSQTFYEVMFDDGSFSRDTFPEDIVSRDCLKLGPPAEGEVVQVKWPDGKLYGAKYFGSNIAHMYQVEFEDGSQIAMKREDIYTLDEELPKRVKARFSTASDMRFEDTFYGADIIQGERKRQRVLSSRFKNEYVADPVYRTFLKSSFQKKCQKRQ

[8] = Oral bioavailability in CD-1 mouse at 5 mg/kg; assay type: ADME, organism-based; details: in vivo
[9] = Hepatic clearance in rat hepatocytes; assay type: ADME, cell-based, Hepatocyte
[10] = target: T2, Lysine-specific demethylase 5A (Homo sapiens, UniProt P29375); experiment: Inhibition of KDM5A in human PC9 cells assessed as increase in H3K4me3 level after 5 days by mass-spectrometric method; assay type: cell-based
T2 sequence (P29375 whole entry): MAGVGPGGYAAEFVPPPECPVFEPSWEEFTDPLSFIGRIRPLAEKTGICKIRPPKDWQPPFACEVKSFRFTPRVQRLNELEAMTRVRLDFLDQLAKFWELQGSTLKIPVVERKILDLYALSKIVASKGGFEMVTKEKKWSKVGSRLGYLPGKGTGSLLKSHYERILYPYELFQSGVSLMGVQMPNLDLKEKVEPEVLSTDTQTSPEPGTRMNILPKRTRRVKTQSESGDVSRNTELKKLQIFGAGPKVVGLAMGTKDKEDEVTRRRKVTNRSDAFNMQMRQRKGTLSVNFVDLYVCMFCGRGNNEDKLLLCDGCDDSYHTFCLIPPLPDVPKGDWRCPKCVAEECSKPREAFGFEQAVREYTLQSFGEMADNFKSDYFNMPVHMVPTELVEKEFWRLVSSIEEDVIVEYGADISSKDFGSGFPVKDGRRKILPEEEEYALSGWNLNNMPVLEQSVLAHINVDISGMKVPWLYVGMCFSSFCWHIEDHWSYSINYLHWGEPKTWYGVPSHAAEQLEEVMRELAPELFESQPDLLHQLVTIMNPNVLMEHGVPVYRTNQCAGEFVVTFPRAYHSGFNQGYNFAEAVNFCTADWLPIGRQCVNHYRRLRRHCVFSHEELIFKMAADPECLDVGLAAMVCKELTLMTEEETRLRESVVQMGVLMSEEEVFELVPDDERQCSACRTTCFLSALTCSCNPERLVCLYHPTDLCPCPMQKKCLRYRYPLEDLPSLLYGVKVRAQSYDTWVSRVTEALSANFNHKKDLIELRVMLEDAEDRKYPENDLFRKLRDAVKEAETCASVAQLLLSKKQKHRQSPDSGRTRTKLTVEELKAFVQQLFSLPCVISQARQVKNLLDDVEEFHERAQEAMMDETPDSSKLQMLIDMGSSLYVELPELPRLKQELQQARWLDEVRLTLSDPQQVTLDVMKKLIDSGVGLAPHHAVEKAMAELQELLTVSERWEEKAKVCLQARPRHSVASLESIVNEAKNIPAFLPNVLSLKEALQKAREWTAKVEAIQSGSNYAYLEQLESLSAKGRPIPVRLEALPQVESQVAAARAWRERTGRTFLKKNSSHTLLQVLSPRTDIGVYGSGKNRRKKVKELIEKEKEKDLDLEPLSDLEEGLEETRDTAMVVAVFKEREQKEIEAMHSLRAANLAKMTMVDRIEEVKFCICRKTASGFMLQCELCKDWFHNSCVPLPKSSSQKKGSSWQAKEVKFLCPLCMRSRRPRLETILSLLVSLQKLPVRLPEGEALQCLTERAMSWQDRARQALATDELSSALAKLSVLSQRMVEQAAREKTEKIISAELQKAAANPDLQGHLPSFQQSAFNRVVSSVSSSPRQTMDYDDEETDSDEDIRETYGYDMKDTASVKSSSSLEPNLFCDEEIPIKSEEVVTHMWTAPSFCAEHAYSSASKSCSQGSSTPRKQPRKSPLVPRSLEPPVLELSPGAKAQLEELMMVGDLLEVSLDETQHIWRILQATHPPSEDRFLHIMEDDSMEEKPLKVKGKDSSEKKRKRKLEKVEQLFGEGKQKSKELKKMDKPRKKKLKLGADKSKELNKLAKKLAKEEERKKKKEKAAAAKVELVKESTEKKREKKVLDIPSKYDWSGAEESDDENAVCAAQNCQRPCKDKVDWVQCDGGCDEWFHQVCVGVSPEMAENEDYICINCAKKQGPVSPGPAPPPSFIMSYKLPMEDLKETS

[11] = Clearance in CD-1 mouse plasma at 1 mg/kg, iv or 5 mg/kg, po; assay type: ADME, organism-based
[12] = target: T2, Lysine-specific demethylase 5A; experiment: Inhibition of recombinant human N-terminal FLAG-tagged KDM5A expressed in baculovirus infected Sf9 insect cells using H3K4me3 peptide as substrate after 30 to 45 mins by TR-FRET assay
[13] = Hepatic clearance in rat liver microsomes; assay type: ADME, microsome
[14] = Hepatic clearance in mouse liver microsomes; assay type: ADME, microsome
[15] = Hepatic clearance in human hepatocytes; assay type: ADME, cell-based, Hepatocyte
[16] = Hepatic clearance in mouse hepatocytes; assay type: ADME, cell-based, Hepatocyte

- fraction unbound [1]: 0.027
- half-life [2]: 18 min
- fraction unbound [3]: 0.045
- Vd [4]: 2.1 L/kg
- fraction unbound [5]: 0.043
- CLhep predicted [6]: 7 mL/min/kg
- IC50 [7]: 13.3 µM
- bioavailability [8]: 94%
- CLhep predicted [9]: 39 mL/min/kg
- EC50 [10]: > 30 µM
- clearance [11]: 99.9 mL/min/kg
- IC50 [12]: 0.16 µM
- CLhep predicted [13]: 37 mL/min/kg
- CLhep predicted [14]: 69 mL/min/kg
- CLhep predicted [15]: 12 mL/min/kg
- CLhep predicted [16]: 66 mL/min/kg
Structure (SMILES): Cc1cc(-c2cnn(C)c2)cc(C2CCN(C(=O)c3cc(C(C)C)n[nH]3)C2)n1 (stereo in doubt; 9)
